Results as given in US11633434B2, “Topical kits and compositions and use thereof” (priority 2017, dated 2023).
Starred links: 1 amine or outer side, 2 acyl side, 3 side chain; linkers in the order of their positions; H or OH if unused. Positions of bridges follow the written chain, without caps; N, C: chain ends. Non-standard residues stand in square brackets, D forms with d. Residues, ends and D or L forms follow the SMILES beside them. X1 = CC(C)CCCCCCCCC[C@H](CC(=O)[*:1])O[*:2]

Legend:
C. albicans [1] = conditions: reported value; cited from earlier work
C. albicans [2] = assay: Antifungal activity of the formula, disk diffusion method; type: cell-based; conditions: Candida albicans, 48 h, read-out: diameter inhibition zones
Procedure: The antifungal activity of the bacillus (10^8/ml) in the formula was determined using the disk diffusion method and was compared to that of empty formulation (without bacillus) and of ketoconazole 2% w/v in ethylene glycol (FIG. 11). A lawn of C. albicans (100 μl of 10^7 cells/ml) was spread on yeast extract-peptone-dextrose (YPD) agar petri dishes and tested solutions (10 μl ) were loaded on paper filter disks (6 mm in diameter) placed at the center of each dish and incubated at 37° C. for 48 h.

SMILES	synergistic anti-fungal MIC (C. albicans [1])	zone of inhibition at 2 % strength (C. albicans [2])
CC(C)CCCCCCCCC[C@@H]1CC(=O)N[C@@H](CCC(=O)O)C(=O)N[C@@H](CC(C)C)C(=O)N[C@H](CC(C)C)C(=O)N[C@@H](C(C)C)C(=O)N[C@@H](CC(=O)O)C(=O)N[C@H](CC(C)C)C(=O)N[C@@H](CC(C)C)C(=O)O1 [Surfactin C15] (EL[dL]VD[dL]L; linker N-C via X1)	6.25 µg/mL	
CC(=O)N1CCN(c2ccc(OCC3COC(Cn4ccnc4)(c4ccc(Cl)cc4Cl)O3)cc2)CC1 (centres unmarked) [ketoconazole]		14 mm
